Experimental data: patent publication US20230053437A1, “LIPID COMPOUNDS AND LIPID NANOPARTICLE COMPOSITIONS” (Suzhou Abogen Biosciences Co., Ltd., priority 2020, published 2023)

What was measured:
Format in all cases: physicochemical
[1] = Apparent pKa of LNP formulations, TNS fluorescence assay; conditions: LNP cationic lipid/DSPC/cholesterol/DMG-PEG 50/10/38.5/1.5 mol %, pH 3 to 9
Experimental: As reported in literature, the apparent pKa of LNP formulations correlates with the delivery efficiency of LNPs for nucleic acids in vivo. The apparent pKa of each formulation was determined using an assay based on fluorescence of 2-(p-toluidino)-6-napthalene sulfonic acid (TNS). LNP formulations comprising of cationic lipid/DSPC/cholesterol/DMG-PEG (50/10/38.5/1.5 mol %) in PBS were prepared as described above. TNS was prepared as a 300 uM stock solution in distilled water. LNP formulations were diluted to 0.1 mg/ml total lipid in 3 mL of buffered solutions containing 50 mM sodium citrate, 50 mM sodium phosphate, 50 mM sodium borate, and 30 mM sodium chloride where the pH ranged from 3 to 9. An aliquot of the TNS solution was added to give a final concentration of 0.1 mg/ml and following vortex mixing fluorescence intensity was measured at room temperature in a Molecular Devices Spectramax iD3 spectrometer using excitation and mission wavelengths of 325 nm and 435 nm. A sigmoidal best fit analysis was applied to the fluorescence data and the pKa value was measured as the pH giving rise to half-maximal fluorescent intensity.

[2] = Encapsulation efficiency of lipid nanoparticles, Quant-it Ribogreen RNA quantification assay; conditions: LNP with hEPO mRNA
Experimental: (§1) Briefly, a cationic lipid provided herein, DSPC, cholesterol, and PEG-lipid were solubilized in ethanol at a molar ratio of 50:10:38.5:1.5, and mRNA were diluted in 10 to 50 mM citrate buffer, pH=4. The LNPs were prepared at a total lipid to mRNA weight ratio of approximately 10:1 to 30:1 by mixing the ethanolic lipid solution with the aqueous mRNA solution at a volume ratio of 1:3 using a microfluidic apparatus, total flow rate ranging from 9-30 mL/min. Ethanol were thereby removed and replaced by DPBS using dialysis. Finally, the lipid nanoparticles were filtered through a […] sterile filter.
(§2) Lipid nanoparticle size were determined by dynamic light scattering using a Malvern Zetasizer Nano ZS (Malvern UK) using a 173° backscatter detection mode. The encapsulation efficiency of lipid nanoparticles were determined using a Quant-it Ribogreen RNA quantification assay kit (Thermo Fisher Scientific, UK) according to the manufacturer's instructions.

[3] = Lipid nanoparticle size by dynamic light scattering (Malvern Zetasizer Nano ZS); conditions: LNP: cationic lipid/DSPC/cholesterol/PEG-lipid 50:10:38.5:1.5 with hEPO mRNA
Experimental: as §1, §2

| Apparant Pka [1] | Encapsulation Efficiency [2] [%] | polydispersity [3] | size (nm) [3] [nm] | Structure (SMILES) |
| --- | --- | --- | --- | --- |
| 7.29 | 92.5 | 0.079 | 80.24 | CCCCCCCCCCCC(=O)OCC1(COC(=O)CCCCCCCCCCC)CCN(C(=O)CCN(C)CCO)CC1 [Compound 2] |
| 7.58 | 96.4 | 0.165 | 64.67 | CCCCCCCCCCCC(=O)OCC1(COC(=O)CCCCCCCCCCC)CCN(C(=O)CCN(CC)CCO)CC1 [Compound 3] |
| 7.18 | 92.8 | 0.199 | 64.29 | CCCCCCCCCCCC(=O)OCC1(COC(=O)CCCCCCCCCCC)CCN(C(=O)CCN(CCO)CCO)CC1 [Compound 4] |
| – | 95.5 | 0.08 | 70.22 | CCCCCCCCCCCC(=O)OCC1(COC(=O)CCCCCCCCCCC)CCN(C(=O)CCN(C)C)CC1 [Compound 9] |
| 7.68 | 96.6 | 0.159 | 54.04 | CCCCCCCCCCCC(=O)OCC1(COC(=O)CCCCCCCCCCC)CCN(C(C)CO)CC1 (centres unmarked) [Compound 17] |
| 7.93 | 94.5 | 0.137 | 66.82 | CCCCCCCCCCCC(=O)OCC1(COC(=O)CCCCCCCCCCC)CCN(CCCCO)CC1 [Compound 19] |
| 7.76 | 93.9 | 0.252 | 56.79 | CCCCCCCCCCCC(=O)OCC1(COC(=O)CCCCCCCCCCC)CCN(C(=O)CCN(CCC)CCO)CC1 [Compound 22] |
| 7.68 | 93.0 | 0.078 | 77.29 | CCCCCCCCCCCC(=O)OCC1(COC(=O)CCCCCCCCCCC)CCN(C(=O)CCN(CCO)C(C)C)CC1 [Compound 23] |
| 7.98 | 93.6 | 0.165 | 71.61 | CCCCCCCCCCCC(=O)OCC1(COC(=O)CCCCCCCCCCC)CCN(C(=O)CCN(CCO)CCCC)CC1 [Compound 24] |
| 7.98 | 89.3 | 0.153 | 69.62 | CCCCCCCCCCCC(=O)OCC1(COC(=O)CCCCCCCCCCC)CCN(C(=O)CCN(CCO)CCCCC)CC1 [Compound 25] |
| 7.57 | 89.7 | 0.138 | 91.83 | CCCCCCCCCCCC(=O)OCC1(COC(=O)CCCCCCCCCCC)CCN(C(=O)CCN(CCO)CCCCCC)CC1 [Compound 26] |
| 8.27 | 93.6 | 0.11 | 71.72 | CCCCCCCCCCCC(=O)OCC1(COC(=O)CCCCCCCCCCC)CCN(C(=O)CCN(CC)CC)CC1 [Compound 27] |
| – | 79.2 | 0.142 | 116.2 | CCCCCCCCCCCC(=O)OCC1(COC(=O)CCCCCCCCCCC)CCN(C(=O)CCN(CCC)CCC)CC1 [Compound 28] |
| 6.77 | 80.1 | 0.056 | 92.03 | CCCCCCCCCCCC(=O)OCC1(COC(=O)CCCCCCCCCCC)CCN(C(=O)CCN(CCCC)CCCC)CC1 [Compound 30] |
| 6.34 | 88.2 | 0.13 | 93.36 | CCCCCCCCCC(=O)OCC1(COC(=O)CCCCCCCCC)CCN(C(=O)CCN(CCCCCC)CCCCCC)CC1 [Compound 32] |
| 8.02 | 96.0 | 0.261 | 89.42 | CCCCCCCCCCCC(=O)OCC1(COC(=O)CCCCCCCCCCC)CCN(C(=O)CCCN(CC)CCO)CC1 [Compound 35] |
| 7.84 | 93.2 | 0.095 | 67.83 | CCCCCCCCCCCC(=O)OCC1(COC(=O)CCCCCCCCCCC)CCN(C(=O)CCCN(CCC)CCO)CC1 [Compound 36] |
| 6.04 | 94.9 | 0.386 | 95.98 | CCCCCCCCCCCC(=O)OCC1(COC(=O)CCCCCCCCCCC)CCN(C(=O)CCCN(CCO)CCCC)CC1 [Compound 37] |

Continued, molecule first:

| Structure (SMILES) | Apparant Pka [1] | Encapsulation Efficiency [2] [%] | polydispersity [3] | size (nm) [3] [nm] |
| --- | --- | --- | --- | --- |
| CCCCCCCCCCCC(=O)OCC1(COC(=O)CCCCCCCCCCC)CCN(CCO)CC1 [Compound 1] | 7.30 | 98.8 | 0.096 | 58.53 |
| CCCCCCCCCCCC(=O)OCC1(COC(=O)CCCCCCCCCCC)CCN(C(=O)CCN2CCCC2)CC1 [Compound 5] | 7.67 | 95.4 | 0.112 | 69.83 |
| CCCCCCCCCCCC(=O)OCC1(COC(=O)CCCCCCCCCCC)CCN(C(=O)CCN2CCCCC2)CC1 [Compound 6] | 6.85 | 89.2 | 0.064 | 100 |
| CCCCCCCCCCCC(=O)OCC1(COC(=O)CCCCCCCCCCC)CCN(C(=O)CCN2CCCCCC2)CC1 [Compound 7] | 9.02 | 98.2 | 0.101 | 68 |
| CCCCCCCCCCCC(=O)OCC1(COC(=O)CCCCCCCCCCC)CCN(C(=O)CCN2CCCCCCC2)CC1 [Compound 8] | 7.58 | 91.6 | 0.227 | 74.14 |
| CCCCCCCCCCCC(=O)OCC1(COC(=O)CCCCCCCCCCC)CCN(C(=O)CCN2CCOCC2)CC1 [Compound 10] | 6.81 | 82.5 | 0.135 | 67.82 |
| CCCCCCCCCCCC(=O)OCC1(COC(=O)CCCCCCCCCCC)CCN(C(=O)CCN(C)CCCNc2c(N(C)C)c(=O)c2=O)CC1 [Compound 12] | 7.45 | 95.8 | 0.23 | 98.67 |
| CCCCCCCCCCCC(=O)OCC1(COC(=O)CCCCCCCCCCC)CCN(C(=O)CCN(C)CCCn2ccc(=O)[nH]c2=O)CC1 [Compound 13] | 7.09 | 95.5 | 0.127 | 57.44 |
| CCCCCCCCCCCC(=O)OCC1(COC(=O)CCCCCCCCCCC)CCN(C(=O)CCN(C)CCCn2ccc(N)nc2=O)CC1 [Compound 14] | 8.22 | 92.5 | 0.092 | 67.29 |
| CCCCCCCCCCCC(=O)OCC1(COC(=O)CCCCCCCCCCC)CCN(C(=O)CCN(C)CCCn2cnc3c(N)ncnc32)CC1 [Compound 15] | 6.65 | 94.2 | 0.153 | 63.65 |
| CCCCCCCCCCCC(=O)OCC1(COC(=O)CCCCCCCCCCC)CCN(CCCO)CC1 [Compound 18] | 7.17 | 94.0 | 0.212 | 105.9 |
| CCCCCCCCCCCC(=O)OCC1(COC(=O)CCCCCCCCCCC)CCN(CCCCCO)CC1 [Compound 20] | 8.23 | 92.6 | 0.161 | 81.62 |
| CCCCCCCCCCCC(=O)OCC1(COC(=O)CCCCCCCCCCC)CCN(CCCCCCO)CC1 [Compound 21] | 6.71 | 73.2 | 0.198 | 127.8 |
| CCCCCCCCCCCC(=O)OCC1(COC(=O)CCCCCCCCCCC)CCN(C(=O)CCN(CCCCCC)CCCCCC)CC1 [Compound 31] | 6.39 | 92.7 | 0.136 | 67.72 |
| CCCCCCCCCCCCCC(=O)OCC1(COC(=O)CCCCCCCCCCCCC)CCN(C(=O)CCN(CCCCCC)CCCCCC)CC1 [Compound 33] | 6.06 | 89.9 | 0.106 | 87.01 |
| CCCCCCCCCCCCCCCC(=O)OCC1(COC(=O)CCCCCCCCCCCCCCC)CCN(C(=O)CCN(CCCCCC)CCCCCC)CC1 [Compound 34] | 5.90 | 74.0 | 0.127 | 110.4 |
